Experimental findings from patent publication US9771369B2, “Compounds and methods for kinase modulation, and indications therefor” (Plexxikon Inc., priority 2014, dated 2017) are described below.

The target of the assay is c-Kit kinase (Homo sapiens (Human), UniProt P10721). Description: c-Kit biochemical assay (AlphaScreen kinase activity). The method in brief: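 IC50 values come from 8-point, 1:3 compound titrations measuring inhibition of peptide phosphorylation by c-Kit (commercial or His-tagged E. coli-expressed) over 1 h at room temperature, read by AlphaScreen PY30/streptavidin beads. Low-ATP version: 10 μM ATP, 100 nM biotin-(E4Y)3; high-ATP version: 100 μM ATP, 30 nM biotin-(E4Y)10.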
c-Kit kinase, sequence (P10721 26-976): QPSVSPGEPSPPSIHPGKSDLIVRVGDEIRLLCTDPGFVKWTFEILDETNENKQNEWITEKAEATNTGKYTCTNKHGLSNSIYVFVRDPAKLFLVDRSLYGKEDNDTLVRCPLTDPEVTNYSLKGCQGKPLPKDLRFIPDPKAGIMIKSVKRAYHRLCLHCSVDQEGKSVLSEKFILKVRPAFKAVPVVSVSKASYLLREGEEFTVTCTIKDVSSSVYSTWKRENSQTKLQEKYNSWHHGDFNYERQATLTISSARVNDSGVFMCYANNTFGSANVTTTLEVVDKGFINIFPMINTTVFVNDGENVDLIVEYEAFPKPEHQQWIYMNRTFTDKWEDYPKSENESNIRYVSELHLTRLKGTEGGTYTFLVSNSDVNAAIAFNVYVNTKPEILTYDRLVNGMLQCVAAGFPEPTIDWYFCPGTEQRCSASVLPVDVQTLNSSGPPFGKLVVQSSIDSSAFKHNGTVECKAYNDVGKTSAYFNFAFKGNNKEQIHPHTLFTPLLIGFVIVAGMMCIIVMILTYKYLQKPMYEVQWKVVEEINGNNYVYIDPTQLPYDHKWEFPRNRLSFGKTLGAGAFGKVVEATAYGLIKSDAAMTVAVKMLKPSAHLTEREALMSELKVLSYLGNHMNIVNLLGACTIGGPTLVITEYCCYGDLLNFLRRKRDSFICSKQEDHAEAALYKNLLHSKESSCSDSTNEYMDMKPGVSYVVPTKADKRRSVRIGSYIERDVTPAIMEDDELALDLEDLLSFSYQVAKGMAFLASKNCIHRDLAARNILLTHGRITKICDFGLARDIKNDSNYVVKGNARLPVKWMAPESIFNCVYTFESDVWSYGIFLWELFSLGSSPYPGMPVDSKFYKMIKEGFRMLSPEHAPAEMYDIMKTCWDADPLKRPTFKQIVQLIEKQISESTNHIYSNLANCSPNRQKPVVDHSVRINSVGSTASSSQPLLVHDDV
In general terms: In Alpha technology, singlet oxygen from a donor bead excites a nearby acceptor bead.
For the compound `Cc1nc(C2CCN(c3ncnc4[nH]c(-c5ccc(F)cc5)cc34)CC2)[nH]c1-c1ccc(F)cc1` [P-3006, 6-(4-fluorophenyl)-4-[4-[5-(4-fluorophenyl)-4-methyl-1H-imidazol-2-yl]-1-piperidyl]-7H-pyrrolo[2,3-d]pyrimidine], the IC50 (as a rule, the midpoint of a concentration-inhibition curve) lay within 0.0001 to 1 µM.

`Cc1ccc(-c2[nH]c(C3CCN(c4ncnc5[nH]c(-c6ccc(C#N)cc6)cc45)CC3)nc2C)cc1` [P-3089, 4-[4-[4-[4-methyl-5-(p-tolyl)-1H-imidazol-2-yl]-1-piperidyl]-7H-pyrrolo[2,3-d]pyrimidin-6-yl]benzonitrile] returned an IC50 of 0.0001 to 1 µM.

Compound `Cc1ccc(-c2[nH]c(C3CCN(c4ncnc5[nH]c(-c6ccc(C#N)cc6)cc45)CC3)nc2C)s1` [P-3090, 4-[4-[4-[4-methyl-5-(5-methyl-2-thienyl)-1H-imidazol-2-yl]-1-piperidyl]-7H-pyrrolo[2,3-d]pyrimidin-6-yl]benzonitrile] returned an IC50 of 0.0001 to 1 µM.

In turn, `COc1cc(-c2cc3c(N4CCC(c5nc(C)c(-c6ccc(OC(C)C)cc6)[nH]5)CC4)ncnc3[nH]2)ccn1` [P-3091, 4-[4-[5-(4-isopropoxyphenyl)-4-methyl-1H-imidazol-2-yl]-1-piperidyl]-6-(2-methoxy-4-pyridyl)-7H-pyrrolo[2,3-d]pyrimidine] had a half-maximal inhibitory concentration (IC50) of 0.0001 to 1 µM.

`Cc1nc(C2CCN(c3ncnc4[nH]c(-c5ccc(F)cc5)cc34)CC2)[nH]c1-c1ccc(OC(C)C)cc1` [P-3092, 6-(4-fluorophenyl)-4-[4-[5-(4-isopropoxyphenyl)-4-methyl-1H-imidazol-2-yl]-1-piperidyl]-7H-pyrrolo[2,3-d]pyrimidine] yielded a 50% inhibitory concentration (IC50) of 0.0001 to 1 µM.

`Cc1nc(C2CCN(c3ncnc4[nH]c(-c5ccc(C#N)cc5)cc34)CC2)[nH]c1-c1ccc(OC(C)C)cc1` [P-3093, 4-[4-[4-[5-(4-isopropoxyphenyl)-4-methyl-1H-imidazol-2-yl]-1-piperidyl]-7H-pyrrolo[2,3-d]pyrimidin-6-yl]benzonitrile] displayed an IC50 of 0.0001 to 1 µM.

As to `CCOc1cc(-c2[nH]c(C3CCN(c4ncnc5[nH]c(-c6ccc(F)cc6)cc45)CC3)nc2C)ccc1C` [P-3094, 4-[4-[5-(3-ethoxy-4-methyl-phenyl)-4-methyl-1H-imidazol-2-yl]-1-piperidyl]-6-(4-fluorophenyl)-7H-pyrrolo[2,3-d]pyrimidine], the IC50 lay within 0.0001 to 1 µM.
